Data published in patent US20250281649A1, “PROBE DIRECTED TO ENZYME ALDH1A3 AND USE THEREOF IN THE DIAGNOSIS OF GLIOBLASTOMA” (Universita' Degli Studi Del Piemonte Orientale "A. Avogadro", priority 2021, published 2025).
Entries after “also recorded” stand apart in the source; their conditions may differ.

How the values were obtained:
[1] = system: U87MG glioblastoma (ALDH1A3+); assay: Confocal fluorescence of probes in cell lines; format: cell-based, human; conditions: 10 μM to 100 nM, after 2 h
Experimental: All 3 enzymes belonging to the subfamily 1A of aldehyde dehydrogenases were expressed recombinantly in bacterial cells and purified to homogeneity. The pure enzymes were then used to study the interaction with the molecules according to the invention, using various in vitro biochemical assays. In particular, the affinity for the isoenzymes of the selected molecules was measured through the use of a TECAN SPARK and a TECAN SUNRISE. Fluorescence assays were performed in the presence of different protein concentrations and the activity assays were conducted by measuring NAD^+ consumption. According to their specific activity, all molecules were characterized by values of KD, KM, Ki and IC50, showing a net selectivity in specifically binding the ALDH1A3 enzyme. […]
Human U87MG glioblastoma were used as ALDH1A3+ cell lines, HEK293T as ALDH1A2+ cell line, human foetal astrocytes (hASTRO) as ALDH1A1+ cell line and 4T1 mammary carcinoma as triple negative ALDHIA subfamily (checked with Western Blot analysis and RT-PCR). […] Moreover, we incubated the two probes with cells and analyzed with FACS and we observed a significant positivity in U87MG cells, too.

ALDH1A1 = molecular target: T1, ALDH1A1 (Homo sapiens, UniProt P00352); assay: KD evaluation by probe fluorescence (Tecan SPARK); format: binding; conditions: probe fixed at 10 μM, isoenzyme 100 μM to 1 μM
T1 construct: His-tag; made in house; host or cells: bacterial cells
T1 sequence (P00352 1-501): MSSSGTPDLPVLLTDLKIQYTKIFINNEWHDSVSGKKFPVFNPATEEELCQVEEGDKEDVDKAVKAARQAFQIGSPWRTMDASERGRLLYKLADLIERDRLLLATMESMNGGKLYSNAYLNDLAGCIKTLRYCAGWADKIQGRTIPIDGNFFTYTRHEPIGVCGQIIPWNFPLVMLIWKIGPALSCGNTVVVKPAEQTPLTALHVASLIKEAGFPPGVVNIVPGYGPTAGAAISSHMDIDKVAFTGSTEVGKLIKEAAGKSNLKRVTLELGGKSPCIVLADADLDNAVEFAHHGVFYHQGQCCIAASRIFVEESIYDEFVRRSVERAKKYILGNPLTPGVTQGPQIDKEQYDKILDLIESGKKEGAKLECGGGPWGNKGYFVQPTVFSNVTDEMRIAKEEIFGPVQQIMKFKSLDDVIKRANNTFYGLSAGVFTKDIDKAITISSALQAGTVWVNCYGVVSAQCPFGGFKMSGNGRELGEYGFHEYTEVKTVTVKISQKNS
Experimental: A common protocol to express and purify all three members of the ALDHIA subfamily has been optimized. Briefly, induced cells, collected by centrifugation, were re-suspended in an appropriate volume of lysis buffer (50 mM Na2HPO4, 300 mM NaCl, 1 mM β-mercaptoethanol, 20 mM imidazole, pH 7.5) added of benzonase nuclease (250 U/μL) and Protease inhibitor cocktail from SIGMA. After ultracentrifugation, the clarified sample was purified by a His-tag affinity chromatography followed by size-exclusion chromatography, using an AKTA FPLC system, at 4° C. To evaluate the purity and homogeneity of the protein, after each purification step, eluted d fractions were analyzed by SDS-PAGE and the protein quantification was always determined by Bradford protein assay.
KD evaluation: on a Tecan—SPARK, probe 14 and 13 were tested at a fixed concentration of 10 μM. All the isoenzymes were tested in wide range of concentrations (from 100 μM to 1 μM). The analysis was settled with a BW of 20, monitoring the Em wavelength in range comprised between 520 and 535 nm for probe 14 and 520 and 580 nm for probe 13. The Ex was fixed at 420 nm for probe 14 and 440 nm for probe 13. The test was performed in quadruplicate with all the three isoenzymes. The recipe of the buffer reaction was the same as described before.

GL261 glioblastoma cells = assay: In vivo labelling of GL261 glioma in mouse brain after i.p. injection; conditions: GL261 tumor-bearing mouse brain, 6 hours after injection, 6 days after implantation
Text: We used in vitro and in vivo cells from a mouse high grade glioma cell line, GL261, Briefly, twenty-four 2- to 3-month-old female C57BIC mice were stereotactically implanted under deep general anesthesia (isoflurane supplemented with nitrous oxide) with 1×10^5 GL261 glioblastoma cells. The cells were stereotactically inoculated through a burr hole by a Hamilton syringe into the left striatum (coordinates: 1 mm anteroposterior and 1 mm lateral from bregma, at a depth of 3 mm). All experimental procedures were conducted in accordance with the European Communities Council Directive of 24 Nov. 1986 (86/609 EEC), Recommendation 18/06/2007, Dir. 2010/63/UE, and the Italian law for care and use of experimental animals (DL116/92) and were approved by the Italian Ministry of Health (prot. E669C.15) and the Bioethical Committee of the University of Turin. All animals were housed under a 12-hour light-dark cycle in an environmentally controlled room. All experiments were designed to minimize the numbers of animals used and their discomfort. In each experiment, animals with tumors were allocated to two groups and i.p. injected with probe 14 or probe 13. All drugs were administered intraperitoneally, and treatments were started days 6 after tumor implantation. […] Quantitative and phenotypic evaluations were made on images acquired with a Leica TCS SP5 confocal microscope.

Kd (ALDH1A1) | Compound | fluorescence signal in cells [1] | probe fluorescence / penetration in tumor cells in vivo (GL261 glioblastoma cells)
31.1 µM | COc1cc(/C=C/C(=O)/C=C(O)/C=C/c2ccc(OCc3cn(CCOc4ccc(C=O)cc4)nn3)c(OC)c2)ccc1O [Compound 13] | selectivity; also recorded: selectively illuminate cells expressing only ALDH1A3 | fluoresce in green
42.4 µM | CCOC(=O)Cn1cc(COc2ccc(/C=C/C(O)=C/C(=O)/C=C/c3ccc(O)c(OC)c3)cc2OC)nn1 [Compound 14] | selectivity | does not penetrate to any appreciable level
